We go through 13 compounds from patent US20240116985A1, “STAPLED PEPTIDES AND METHODS THEREOF” (priority 2020, published 2024).

Molecules are shown by their SMILES. Bounds are passed on as bounds.

Test [1] has as its target T1, beta-catenin/TCF4 engagement (Homo sapiens, UniProt P35222).
T1 construct: expressed in transfected cells; host or cells: HEK293
T1 sequence (P35222 1-781): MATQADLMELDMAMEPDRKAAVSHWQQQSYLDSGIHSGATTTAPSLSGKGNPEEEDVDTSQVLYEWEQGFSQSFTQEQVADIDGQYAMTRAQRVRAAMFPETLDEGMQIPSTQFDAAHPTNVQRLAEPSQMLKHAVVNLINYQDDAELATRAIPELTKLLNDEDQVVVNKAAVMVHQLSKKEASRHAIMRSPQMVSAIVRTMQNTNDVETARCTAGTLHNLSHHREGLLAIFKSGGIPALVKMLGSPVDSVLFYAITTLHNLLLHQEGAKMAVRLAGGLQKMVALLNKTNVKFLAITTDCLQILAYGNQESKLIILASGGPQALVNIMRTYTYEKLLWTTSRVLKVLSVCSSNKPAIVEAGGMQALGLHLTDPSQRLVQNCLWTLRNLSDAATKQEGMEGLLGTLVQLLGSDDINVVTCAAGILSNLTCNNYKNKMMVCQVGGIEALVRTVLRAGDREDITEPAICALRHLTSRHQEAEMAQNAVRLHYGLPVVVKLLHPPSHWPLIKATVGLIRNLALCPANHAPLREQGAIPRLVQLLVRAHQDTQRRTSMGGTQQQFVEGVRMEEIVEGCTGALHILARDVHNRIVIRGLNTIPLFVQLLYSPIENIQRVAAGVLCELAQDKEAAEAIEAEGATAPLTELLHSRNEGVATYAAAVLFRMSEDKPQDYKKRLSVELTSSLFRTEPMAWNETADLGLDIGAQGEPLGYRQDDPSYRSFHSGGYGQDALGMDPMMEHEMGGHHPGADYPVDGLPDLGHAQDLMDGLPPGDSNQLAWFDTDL
Kind of test: Nano-BRET target engagement assay (B-cat-Halo & TCF4-Luc in HEK293 cells). Format: cell-based. As to conditions: absolute IC50; read-out: NanoBRET Abs IC50. (In general: Bioluminescence resonance energy transfer reports proximity on the nanometre scale.)

For test [2], the target named is T2, full-length beta-Catenin (Uniprot ID P35222) (Homo sapiens, UniProt P35222).
T2 construct: 10 nM full-length beta-Catenin (Uniprot ID P35222)
T2 sequence (P35222 1-781): T1 sequence (P35222 1-781)
The experiment in a line: Fluorescence polarization IC50 (beta-catenin / 5FAM-TCF4 10-53 competition). The test is classed as binding. The conditions noted are these: fluorescence polarization; read-out: beta-Catenin FP IC50.

Usually IC50 stands for the concentration needed to halve the response being measured. As for `CC(=O)N1CCC[C@]12CC=CCCCC1(CCCC=CCCCOC(=O)N3CC[C@@](C(=O)N[C@@H](Cc4ccccc4Cl)C(=O)N[C@@H](Cc4csc5ccccc45)C(=O)N[C@@H](CCCN4CCOCC4)C(N)=O)(C3)NC(=O)[C@H]([C@@H](C)O)NC(=O)[C@H](Cc3ccccc3)NC(=O)[C@H](C)NC(=O)[C@H](C)NC(=O)[C@H](CN(CC(=O)O)CC(F)(F)F)NC(=O)[C@H](CC(=O)O)NC1=O)NC(=O)[C@H](CC(C)(C)C)NC(=O)[C@H](CC(=O)O)NC2=O` (stereo partly drawn) [I-1609, Ac-PL3-Asp-Npg-B5-Asp-TfeGA-Ala-Ala-Phe-Thr-PyrS2-2C1F-BztA-MorphNva-NH2], the IC50 in test [1] was 6700 nM; in test [2] it was 15 nM.

Consider `CC(=O)N1CCC[C@]12CC=CCCCC1(CCCC=CCCCOC(=O)N3CC[C@@](C(=O)N[C@@H](Cc4ccccc4C(F)(F)F)C(=O)N[C@@H](Cc4csc5ccccc45)C(=O)N[C@@H](CCCN4CCOCC4)C(N)=O)(C3)NC(=O)[C@H](CC(C)C)NC(=O)[C@H](Cc3ccccc3)NC(=O)[C@H](C)NC(=O)[C@H](C)NC(=O)[C@H](Cc3cccc(C(=O)O)c3)NC(=O)[C@H](CC(=O)O)NC1=O)NC(=O)[C@H](CC(C)(C)C)NC(=O)[C@H](CC(=O)O)NC2=O` (stereo partly drawn) [I-1610, Ac-PL3-Asp-Npg-B5-Asp-3COOHF-Ala-Ala-Phe-Leu-PyrS2-2F3MeF-BztA-MorphNva-NH2], for which the IC50 amounted to 4100 nM in test [1] and 19 nM in test [2].

On to `CC(=O)N1CCC[C@]12CC=CCCCC1(CCCC=CCCCOC(=O)N3CC[C@@](C(=O)N[C@@H](Cc4ccccc4Cl)C(=O)N[C@@H](Cc4csc5ccccc45)C(=O)N[C@@H](CC(=O)N4CCN(C)CC4)C(N)=O)(C3)NC(=O)[C@H]([C@@H](C)O)NC(=O)[C@H](Cc3ccccc3)NC(=O)[C@H](C)NC(=O)[C@H](C)NC(=O)[C@H](CN(CC(=O)O)CC(F)(F)F)NC(=O)[C@H](CC(=O)O)NC1=O)NC(=O)[C@H](CC(C)(C)C)NC(=O)[C@H](CC(=O)O)NC2=O` (stereo partly drawn) [I-1611, Ac-PL3-Asp-Npg-B5-Asp-TfeGA-Ala-Ala-Phe-Thr-PyrS2-2C1F-BztA-MePpzAsn-NH2], for which the IC50 in test [1] was 9800 nM; in test [2], 10 nM.

As to `CC(=O)N1CCC[C@]12CC=CCCCC1(CCCC=CCCCOC(=O)N3CC[C@@](C(=O)N[C@@H](Cc4ccccc4Cl)C(=O)N[C@@H](Cc4csc5ccccc45)C(=O)N[C@@H](CC(=O)N4CCOCC4)C(N)=O)(C3)NC(=O)[C@H]([C@@H](C)O)NC(=O)[C@H](Cc3ccccc3)NC(=O)[C@H](C)NC(=O)[C@H](C)NC(=O)[C@H](CN(CC(=O)O)CC(F)(F)F)NC(=O)[C@H](CC(=O)O)NC1=O)NC(=O)[C@H](CC(C)(C)C)NC(=O)[C@H](CC(=O)O)NC2=O` (stereo partly drawn) [I-1613, Ac-PL3-Asp-Npg-B5-Asp-TfeGA-Ala-Ala-Phe-Thr-PyrS2-2C1F-BztA-MorphAsn-NH2], the IC50 in test [1] stood at 5200 nM; in test [2], 9 nM.

For `CC(=O)N1CCC[C@]12CC=CCCCC1(CCCC=CCCCOC(=O)N3CC[C@@](C(=O)N[C@@H](Cc4ccccc4C(F)(F)F)C(=O)N[C@@H](Cc4csc5ccccc45)C(=O)N[C@@H](CC(=O)N4CCOCC4)C(N)=O)(C3)NC(=O)[C@H](CC(C)C)NC(=O)[C@H](Cc3ccccc3)NC(=O)[C@H](C)NC(=O)[C@H](C)NC(=O)[C@H](Cc3cccc(C(=O)O)c3)NC(=O)[C@H](CC(=O)O)NC1=O)NC(=O)[C@H](CC(C)(C)C)NC(=O)[C@H](CC(=O)O)NC2=O` (stereo partly drawn) [I-1614, Ac-PL3-Asp-Npg-B5-Asp-3COOHF-Ala-Ala-Phe-Leu-PyrS2-2F3MeF-BztA-MorphAsn-NH2], the results for the IC50 in test [1] and in test [2] were 6400 nM and 15 nM, respectively.

As to `CC(=O)N1CCC[C@]12CC=CCCCC1(CCCC=CCCCOC(=O)N3CC[C@@](C(=O)N[C@@H](Cc4ccccc4Cl)C(=O)N[C@@H](Cc4csc5ccccc45)C(=O)N[C@@H](CCCCNC(C)C)C(N)=O)(C3)NC(=O)[C@H]([C@@H](C)O)NC(=O)[C@H](Cc3ccccc3)NC(=O)[C@H](C)NC(=O)[C@H](C)NC(=O)[C@H](CN(CC(=O)O)CC(F)(F)F)NC(=O)[C@H](CC(=O)O)NC1=O)NC(=O)[C@H](CC(C)(C)C)NC(=O)[C@H](CC(=O)O)NC2=O` (stereo partly drawn) [I-1615, Ac-PL3-Asp-Npg-B5-Asp-TfeGA-Ala-Ala-Phe-Thr-PyrS2-2C1F-BztA-iPrLys-NH2], the IC50 in test [1] is 8000 nM; in test [2], 9 nM.

As to `CCN(CC(=O)O)C[C@@H]1NC(=O)[C@H](CC(=O)O)NC(=O)C2(CCCC=CCCCOC(=O)N3CC[C@@](C(=O)N[C@@H](Cc4ccccc4Cl)C(=O)N[C@@H](Cc4csc5ccccc45)C(=O)N[C@@H](CCC(N)=O)C(N)=O)(C3)NC(=O)[C@H](CC(N)=O)NC(=O)[C@H](Cc3ccccc3)NC(=O)[C@H](C)NC(=O)[C@H](C)NC1=O)CCCC=CC[C@]1(CCCN1C(C)=O)C(=O)N[C@@H](CC(=O)O)C(=O)N[C@@H](CC(C)(C)C)C(=O)N2` (stereo partly drawn) [I-1622, Ac-PL3-Asp-Npg-B5-Asp-[Et]GA-Ala-Ala-Phe-Asn-PyrS2-2C1F-BztA-Gln-NH2], the results for the IC50 in test [1] and in test [2] were > 20000 nM and 13 nM, respectively.

`CC(=O)N1CCC[C@]12CC=CCCCC1(CCCC=CCCCCCC[C@@](C)(C(=O)N[C@@H](Cc3ccsc3)C(=O)N[C@@H](Cc3csc4ccccc34)C(=O)N[C@@H](CCC(N)=O)C(N)=O)NC(=O)[C@H](CC(N)=O)NC(=O)[C@H](Cc3ccccc3)NC(=O)[C@H](C)NC(=O)[C@H](C)NC(=O)[C@H](CN(CCC(F)(F)F)CC(=O)O)NC(=O)[C@H](CC(=O)O)NC1=O)NC(=O)[C@H](CC(C)(C)C)NC(=O)[C@H](CC(=O)O)NC2=O` (stereo partly drawn) [I-1625, Ac-PL3-Asp-Npg-B5-Asp-[Tfp]GA-Ala-Ala-Phe-Asn-S8-3Thi-BztA-Gln-NH2]: the IC50 in test [1] was found to be 29300 nM; in test [2], 52.5 nM.

As for `CCN(CC(=O)O)C[C@@H]1NC(=O)[C@H](CC(=O)O)NC(=O)C2(CCCC=CCCCCCC[C@@](C)(C(=O)N[C@@H](Cc3ccsc3)C(=O)N[C@@H](Cc3csc4ccccc34)C(=O)N[C@@H](CCC(N)=O)C(N)=O)NC(=O)[C@H](CC(N)=O)NC(=O)[C@H](Cc3ccccc3)NC(=O)[C@H](C)NC(=O)[C@H](C)NC1=O)CCCC=CC[C@]1(CCCN1C(C)=O)C(=O)N[C@@H](CC(=O)O)C(=O)N[C@@H](CC(C)(C)C)C(=O)N2` (stereo partly drawn) [I-1627, Ac-PL3-Asp-Npg-B5-Asp-[Et]GA-Ala-Ala-Phe-Asn-S8-3Thi-BztA-Gln-NH2], the IC50 in test [1] is > 20000 nM; in test [2], 57 nM.

On to `CCN(CC(=O)O)C[C@@H]1NC(=O)[C@H](CC(=O)O)NC(=O)C2(CCCC=CCCCCCC[C@@](C)(C(=O)N[C@@H](Cc3ccsc3)C(=O)N[C@@H](Cc3csc4ccccc34)C(=O)N[C@@H](CCC(N)=O)C(N)=O)NC(=O)[C@H](CC(N)=O)NC(=O)[C@H](Cc3ccccc3)NC(=O)[C@H](C)NC(=O)[C@H](C)NC1=O)CCCC=CC[C@]1(CCCN1C(C)=O)C(=O)N[C@@H](CC(=O)O)C(=O)N[C@@H](CC(C)(C)C)C(=O)N2` (stereo partly drawn) [I-1628, Ac-PL3-Asp-Npg-B5-Asp-[Et]GA-Ala-Ala-Phe-Asn-S8-3Thi-BztA-Gln-NH2], for which the IC50 in test [1] was > 20000 nM; in test [2], 18 nM.

On to `CC(=O)N1CCC[C@]12CC=CCCCC1(CCCC=CCCCOC(=O)N3CC[C@@](C(=O)N[C@@H](Cc4ccsc4)C(=O)N[C@@H](Cc4csc5ccccc45)C(=O)N[C@@H](CCC(N)=O)C(N)=O)(C3)NC(=O)[C@H](CC(C)C)NC(=O)[C@H](Cc3ccccc3)NC(=O)[C@H](C)NC(=O)[C@H](C)NC(=O)[C@H](CN(CC(=O)O)Cc3ccccc3)NC(=O)[C@H](CC(=O)O)NC1=O)NC(=O)[C@H](CC(C)(C)C)NC(=O)[C@H](CC(=O)O)NC2=O` (stereo partly drawn) [I-1630, Ac-PL3-Asp-Npg-B5-Asp-[Bn]GA-Ala-Ala-Phe-Leu-PyrS2-3Thi-BztA-Gln-NH2], for which the IC50 stood at 5000 nM in test [1] and 11.5 nM in test [2].

As to `CC(=O)N1CCC[C@]12CC=CCCCC1(CCCC=CCCCOC(=O)N3CC[C@@](C(=O)N[C@@H](Cc4ccsc4)C(=O)N[C@@H](Cc4csc5ccccc45)C(=O)N[C@@H](CCC(N)=O)C(N)=O)(C3)NC(=O)[C@H](CC(C)C)NC(=O)[C@H](Cc3ccccc3)NC(=O)[C@H](C)NC(=O)[C@H](C)NC(=O)[C@H](CN(C)CC(=O)O)NC(=O)[C@H](CC(=O)O)NC1=O)NC(=O)[C@H](CC(C)(C)C)NC(=O)[C@H](CC(=O)O)NC2=O` (stereo partly drawn) [I-1631, Ac-PL3-Asp-Npg-B5-Asp-[Me]GA-Ala-Ala-Phe-Leu-PyrS2-3Thi-BztA-Gln-NH2], the IC50 came to 30100 nM in test [1] and 10 nM in test [2].

Consider `CC(=O)N1CCC[C@]12CC=CCCCC1(CCCC=CCCCOC(=O)N3CC[C@@](C(=O)N[C@@H](Cc4ccsc4)C(=O)N[C@@H](Cc4csc5ccccc45)C(=O)N[C@@H](CCC(N)=O)C(N)=O)(C3)NC(=O)[C@H](CC(C)C)NC(=O)[C@H](Cc3ccccc3)NC(=O)[C@H](C)NC(=O)[C@H](C)NC(=O)[C@H](CN(CCC(F)(F)F)CC(=O)O)NC(=O)[C@H](CC(=O)O)NC1=O)NC(=O)[C@H](CC(C)(C)C)NC(=O)[C@H](CC(=O)O)NC2=O` (stereo partly drawn) [I-1633, Ac-PL3-Asp-Npg-B5-Asp-[Tfp]GA-Ala-Ala-Phe-Leu-PyrS2-3Thi-BztA-Gln-NH2], for which the values for the IC50 in test [1] and in test [2] were 5200 nM and 10 nM, respectively.
